Experiments:
[1] = biological target: T1, human adenosine A3 receptor (Homo sapiens (Human), UniProt P0DMS8); experiment: Intracellular cAMP levels (inhibition of forskolin-stimulated cAMP production); assay type: cell-based; conditions: for EC50: CHO cells expressing human adenosine A3 receptors, forskolin 10 μM; for CAMP Efficacy (%): maximal response as percentage of the response produced by 100 nM IB-MECA
Source text: Example 31: Intracellular cAMP Levels
The method followed is that published in Yates L, Clark J H, Martin T J, James S, Broadley K J, Kidd E J. Radioligand binding and functional responses of ligands for human recombinant adenosine A3 receptors. Auton Autacoid Pharmacol. 2006 April; 26(2):191-200.
Materials and Cell Culture: Adenosine deaminase was obtained from Roche (Lewes, UK). Forskolin was obtained from Sigma-Aldrich (Poole, UK). The sources of other materials are provided above in Example 1. CHO-K1 cells stably transfected with the human adenosine A3 receptor were grown in Dulbecco's modified Eagles medium with nutrient mixture F12 containing NaHCO3 and Glutamax. Media was supplemented with 10% fetal calf serum, geneticin (G418; 0.67 mg/mL), hygromycin (500 μg/mL) and adenosine deaminase (1 U/mL). Cells were maintained at 37° C. with 5% CO2 in air.
cAMP Measurements: Intracellular cAMP production was measured directly using a non-acetylation cAMP enzyme immunoassay (Amersham Biosciences, Little Chalfont, UK). Cultured CHO cells expressing human adenosine A3 receptors were allowed to plate overnight in 96-well plates in culture medium containing adenosine deaminase. Twenty-four hours later, they were incubated with adenosine analogues or compounds of the invention (0.1 nM-1 μM) for 5 min at 37° C., followed by incubation with forskolin (10 μM) for 10 min. The cells were then lysed with 200 μL of lysis reagent 1 provided with the kit for 10 min to release intracellular cAMP. Aliquots of the supernatants were then transferred to a 96-well microtitre plate coated with donkey anti-rabbit IgG; 100-μL cAMP standards (12.5-3200 fmol/well) were also added to the microtitre plate; 100 μL of rabbit anti-cAMP antibody was added to all wells and incubated at 2-5° C. for 2 h. The antiserum was made up in lysis reagent 2, which sequesters the key component in lysis reagent 1 and ensures that cAMP is free for subsequent analysis. Then 50 μL of cAMP peroxidase conjugate was added to all wells and left to incubate for 60 min at 2-5° C. to allow competition for the antibody between the un-labelled and horse radish peroxidase (HRP)-labelled cAMP. Wells were then washed with buffer and 150 μL of enzyme substrate containing 3,3′,5,5′-tetramethylbenzidine/hydrogen peroxide in 20% (v/v) dimethylformamide was added to each well and left to incubate for 60 min on a Titramax 100 microtitre plate shaker (Heidolph Instruments, Schwabach, Germany) at room temperature for color development. The reaction was stopped by the addition of 100 μL of 1 M sulfuric acid and the optical density (OD) read at 450 nm on a spectrophotometric MRX microplate reader (Dynex Technologies, Chantilly, VA, USA).
Analyses: Each sample/standard was analyzed in duplicate and the resulting OD values averaged. The percent bound (B/Bo) for each standard and sample was calculated using the following relationship: […]
where B is the specific OD for standard/sample and Bo is the specific OD for the zero standard. A standard curve was generated by plotting % B/Bo as a function of the log fmol cAMP standard per well. The fmol per well value for cAMP in each sample was then read from the graph. The results are expressed as a percent of control agonist response: (measured response/control response)*100 in the presence of the compounds of the invention. Concentration-response curves for inhibition of cAMP production were constructed for all compounds of the invention and reference compounds. The EC50 values (concentration producing a half-maximal response) were determined by non-linear regression analysis of the concentration-response curves generated with mean replicate values using Hill equation curve fitting, according to the equation:
where Y=response, A=left asymptote of the curve, D=right asymptote of the curve, C=compound concentration, and C50=EC50, and nH=slope factor. […]

[2] = biological target: T1, human adenosine A3 receptor; experiment: Adenosine receptor binding assay ([125I]-AB-MECA competition); conditions: inhibition of 0.15 nM [125I]-AB-MECA binding, membranes of cells expressing human A3 receptor; read-out: hA3 Ki: Ki
Source text: Example 30: Adenosine Receptor Binding Assay
Materials and Reference Compounds: [^125I]-AB-MECA and [^3H]CCPA are both obtained from Amersham Biosciences (Little Chalfont, UK). IB-MECA are obtained from Tocris (Bristol, UK) and N6-cyclopentyl adenosine (CPA) is obtained from Sigma-Alrich (Poole, UK). Cell culture media, G418 and hygromycin are obtained from Invitrogen (Paisley, UK). Fetal calf serum is obtained from Perbio Science (Cheshire, UK). All other reagents are obtained from Fisher Chemicals (Loughborough, UK).
The method followed is that of Yates L, Clark J H, Martin T J, James S, Broadley K J, Kidd E J. Radioligand binding and functional responses of ligands for human recombinant adenosine A3 receptors. Auton Autacoid Pharmacol. 2006; 26(2):191-200. Cells stably transfected with the human adenosine A3 or A1 receptor are grown in Dulbecco's modified Eagles medium with nutrient mixture F12 containing NaHCO3 and Glutamax. Media is supplemented with 10% fetal calf serum, geneticin (G418; 0.67 mg/mL), hygromycin (500 μg/mL) and adenosine deaminase (1 U/mL). Cells are maintained at 37° C. with 5% CO2 in air. Cells are harvested and homogenized in ice-cold Tris buffer [50 mM Tris, 150 mM NaCl, 1 mM ethylenediaminetetraacetic acid (EDTA), pH 7.4] supplemented with the peptidase inhibitors, 4-(2-aminoethyl)benzenesulfonylfluoride (1 mM) and bacitracin (0.1 mg/mL), using a Polytron homogenizer (3×10 s bursts). The homogenate was spun for 10 min (4° C.) at 500 g. The supernatant is retained and the pellet is re-suspended in the buffer, homogenized and spun as above. The combined supernatants are centrifuged for 15 min (4° C.) at 48,000 g. The resultant pellet is re-suspended in the buffer and centrifuged for a second time at 48,000 g. The membrane pellet is then suspended in Tris buffer containing no peptidase inhibitors or adenosine deaminase and stored at −80° C. at a protein concentration of 1 mg/mL.
Binding Assays: Radioligand-binding assays were performed using the adenosine A3 receptor agonist [^125I]-AB-MECA and the A1 receptor agonist [^3H]CCPA. Binding assays were conducted in a total volume of 100 μL containing a 50 mM Tris, pH 7.4 buffer with or without 10 mM MgCl2, 20 μg membranes and either 0.15 nM [^125I]-AB-MECA (for the A3 receptor) or 1 nM [^3H]CCPA (for the A1 receptor). Assays were conducted at room temperature for 60 min (A1 receptor) or 120 min (A3 receptor) and terminated by the addition of 2 ml of ice-cold wash buffer (50 mM Tris, pH 7.4 with or without 10 mM MgCl2) and rapid filtration over 0.03% polyethylenimine-treated Whatman GF/C filters using a Brandel cell harvester (Semat International Ltd., St Albans, UK). Filters were then washed three times with 2 ml of ice-cold buffer. The filter-bound radioactivity were counted using a Compugamma counter (LKB Wallac, Turku, Finland). Competition experiments were performed to investigate the ability of reference compounds and embodiments of the invention to inhibit [^125I]-AB-MECA binding. Non-specific binding were determined using the respective compound at its highest concentration.
Data Analysis: The Kd and Bmax values for binding data were calculated based upon the molar amounts of bound and free [^125I]-AB-MECA. […] IC50 and Ki values and Hill slopes for inhibition of the radioligand binding by the compounds of the invention were calculated from the ligand competition curves using the Excel spreadsheet and the Kd value calculated for either [^125I]-AB-MECA or [^3H]CCPA. The results were expressed as a percent of control specific binding and as a percent inhibition of control specific binding obtained in the presence of the compounds of the invention. The IC50 values (concentration causing a half-maximal inhibition of control specific binding) and Hill coefficients (nH) were determined by non-linear regression analysis of the competition curves generated with mean replicate values using Hill equation curve fitting: […]

ADORA3 = ADORA3 (Homo sapiens (Human), UniProt P0DMS8); experiment: Intracellular calcium release assay (FLIPR); assay type: cell-based; conditions: for EC50: CHO-K1 cells, Fluo-4, top concentration 10 μM, read-out: Cell Calcium Assay EC50; for Cell Calcium Efficacy (%): percentage of the response to NECA
Sequence of ADORA3 (P0DMS8 whole entry): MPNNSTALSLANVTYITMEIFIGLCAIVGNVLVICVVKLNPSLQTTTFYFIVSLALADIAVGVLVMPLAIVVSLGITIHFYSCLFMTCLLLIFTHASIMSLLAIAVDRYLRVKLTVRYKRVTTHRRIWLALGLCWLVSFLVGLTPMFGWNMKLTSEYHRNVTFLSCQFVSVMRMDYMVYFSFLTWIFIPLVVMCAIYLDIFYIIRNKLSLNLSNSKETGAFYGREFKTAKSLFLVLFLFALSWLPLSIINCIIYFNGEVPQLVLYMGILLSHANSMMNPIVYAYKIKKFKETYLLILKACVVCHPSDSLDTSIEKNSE
Method: Example 32: Intracellular Calcium Release Assay
Cell Culture: The table below lists the cell lines used that stably express the 4 subtypes of adenosine receptors, along with the growth medium used for each:
For experiments with the ADORA1- and ADORA3-expressing cells, the medium was aspirated and the cells washed twice with 10 mL DPBS. Two mL of trypsin was added and incubated at 37° C. for 1 minute. Then 10 mL of platting media was added to terminate the digestion and 1 mL of the solution was taken out for cell counting. ADORA2A- and ADORA2B-expressing cells were thawed rapidly in a 37° C. water bath. Cell suspensions were transferred to 50 mL conical tubes. Plating media was added to the 10 mL mark and then 1 mL taken out for cell counting. The 50 mL tubes containing the various types of cells were centrifuged at 1000 g. Then the supernatants were aspirated, being careful not to aspirate the cells. The cell pellets were resuspended in 3-5 mL platting media, then 0.5 mL was taken out for cell counting. Then the cell suspension was diluted to 1×10^6 cells/mL (20,000 cells per 20 μL per well) in platting medium, and cells were seeded into 384-well cell plates (Greiner-781946). The 384-well cell plate was placed in a 37° C./5% CO2 incubator (Thermo-371, Thermo Scientific) for 16-20 hours.
Preparation of the intracellular calcium imaging agent (Fluo-4 Direct™ Calcium Assay Kit, Invitrogen-F10471, Thermo Scientific): One mL of FLIPR Assay Buffer was added to 77 mg probenecid to make a 250 mM solution, which was used fresh for each day. One vial of Fluo-4 Direct™ crystals was thawed and 10 mL of FLIPR Assay Buffer was added to the vial. 0.2 mL of probenecid was added to each 10 mL vial of Fluo-Direct™ solution, such that the final assay concentration was 2.5 mM. It was vortexed, left to stand >5 min and protected from light. The dye was prepared fresh each day.
Compound Preparation: Compound plates were prepared as follows. First, the test compound was diluted to prepare a 2 mM solution and then 10-point 3-fold serial dilutions were made using ECHO (ECHO 555, LabCyte), then 900 nL was transferred to the compound plate. For all targets, the final top concentration of the test compound was […]. For agonist reference compounds, 10-point and 3-fold serial dilutions were made, then 900 nL was transferred to the assay plate. Then 30 μL of assay buffer was added to the compound plate and then the plate was centrifuged at 1000 rpm for 1 min.
FLIPR Assay: Cell plates were removed from the incubator, to which were added 20 μL 2×Fluo-4 Direct™ solution, then the plates were reincubated in a 5% CO2, 37° C. incubator for 50 min and at RT for 10 min. To run the protocol on the Fluorescent Imaging Plate Reader (FLIPR) TETRA (MD-FT0249, Molecular Devices, Inc.), 10 μL of assay buffer was transferred from the 384-well plate (Greiner-781280) to the cell plates and then the fluorescence signal was read. Then 10 μL of compound solution was transferred from the compound plate to the cell plates and the fluorescence signal was read. The “Max-Min” was calculated, starting from Read 91 to the maximum allowed. For agonists, activation %=(RLU−LC)/(HC−LC)*100, based on the following: RLU=relative light unit, 91 to maximum allowed signal; HC=average signal of the high concentration of agonist; LC=average signal of DMSO well. The data were fitted using GraphPad Prism 5, using the model “log(agonist) vs. response—Variable slope” to determine the EC50 value. The receptor efficacy of the test compound relative to the agonist NECA was calculated as a percentage (%) of the response to […]. Table 10 includes EC50 values for compounds described herein.

T1 sequence (P0DMS8 whole entry): as above

`CNC(=O)C12C[C@@H]1[C@@H](n1cnc3c(NCC4CC4)cc(Cl)nc31)[C@H](O)[C@@H]2O` (stereo in doubt) [Compound 63, (1S,2R,3S,4R,5S)-4-(5-chloro-7-((cyclopropylmethyl)amino)-3H-imidazo[4,5-b]pyridin-3-yl)-2,3-dihydroxy-N-methylbicyclo[3.1.0]hexane-1-carboxamide] was tested, and the EC50 [1] was 0.22 nM, the “CAMP Efficacy (%)” value [1] was 105.1% and the Ki [2] was 0.72 nM.

`O[C@@H]1[C@H](O)[C@@H]2C[C@@H]2[C@H]1n1cnc2c(NC3CCC3)cc(Cl)nc21` [Compound 44, (1R,2R,3S,4R,5S)-4-(5-chloro-7-(cyclobutylamino)-3H-imidazo[4,5-b]pyridin-3-yl)bicyclo[3.1.0]hexane-2,3-diol] was tested, and the Ki [2] was 28.4 nM, the EC50 (ADORA3) was 23.1 nM and the “Cell Calcium Efficacy (%)” value (ADORA3) was 52%.

In the case of `O[C@@H]1[C@H](O)[C@@H]2C[C@@H]2[C@H]1n1cnc2c(NCc3cc(F)ccc3F)cc(Cl)nc21` [Compound 45, (1R,2R,3S,4R,5S)-4-(5-chloro-7-((2,5-difluorobenzyl)amino)-3H-imidazo[4,5-b]pyridin-3-yl)bicyclo[3.1.0]hexane-2,3-diol], the Ki [2] is reported as 1.3 nM, the EC50 (ADORA3) is reported as 29.5 nM and the “Cell Calcium Efficacy (%)” value (ADORA3) is reported as 22.5%.

For `O[C@@H]1[C@H](O)[C@@H]2C[C@@H]2[C@H]1n1cnc2c(NCC(F)F)c(F)c(Cl)nc21` [Compound 61, (1R,2R,3S,4R,5S)-4-(5-chloro-7-((2,2-difluoroethyl)amino)-6-fluoro-3H-imidazo[4,5-b]pyridin-3-yl)bicyclo[3.1.0]hexane-2,3-diol], the Ki [2] was 7.15 nM, the EC50 (ADORA3) was 60 nM and the “Cell Calcium Efficacy (%)” value (ADORA3) was 67.3%.

For `CNC(=O)[C@@]12C[C@@H]1[C@@H](n1cnc3c(NCc4cc(Cl)ccc4OCc4cc(C)no4)cc(Cl)nc31)[C@H](O)[C@@H]2O` [Compound 62, (1S,2R,3S,4R,5S)-4-(5-chloro-7-((5-chloro-2-((3-methylisoxazol-5-yl)methoxy)benzyl)amino)-3H-imidazo[4,5-b]pyridin-3-yl)-2,3-dihydroxy-N-methylbicyclo[3.1.0]hexane-1-carboxamide], the EC50 [1] was 0.31 nM, the “CAMP Efficacy (%)” value [1] was 103.26% and the Ki [2] was 0.33 nM.

For `CNC(=O)[C@@]12C[C@@H]1[C@@H](n1cnc3c(NCC(F)F)cc(Cl)nc31)[C@H](O)[C@@H]2O` [Compound 82], the Ki [2] was 4.77 nM, the EC50 (ADORA3) was 1.9 nM and the “Cell Calcium Efficacy (%)” value (ADORA3) was 106%.

— patent US20230416245A1, “ADENOSINE ANALOGS FOR THE TREATMENT OF DISEASE” (BIOINTERVENE, INC., priority 2020, published 2023)
